Test system: malignant (mammary carcinoma) tumor (EMT6/CTX)
Test: Tumor growth of malignant (mammary carcinoma) tumor (EMT6/CTX) in a mouse experimental model
Format: in vivo, CB6F1 male mice
Conditions: for effect on tumor growth, agent alone: i.p.; for inhibition of tumor growth, alone and in combination with Hamsa treatment (summary of experiments 1-4): SB-18 and CHAPS 40 mg/kg, SB-12 2.5 and 40 mg/kg
Procedure: In order to determine the effect of SB-18, CHAPS, SB-12, SB-16-4 and SB-18-4 each alone and each in combination with 4 other agents (“Hamsa treatment”), on tumor growth of a malignant (mammary carcinoma) tumor (EMT6/CTX) in a mouse experimental model, six (6) experiments were carried out as described below:
CB6F1 male mice (a cross between Balbc and C57bl) at age of 7-8 weeks were anesthetized with Ketamine:Xelazine in a 0.85:0.15 ratio respectively, and diluted 1:1 with double distilled water (DDW) and injected i.m. in volume of 50 uL.
100 uL of EMT6/CTX cells 3.6×10^5 cells/mouse were injected subcutaneously (s.c.) to the anesthetized mice, after shaving their back (to enable accurate measurement of tumor-volume). The mice were divided into four groups, as outlined below, 6-8 animals in each group. The mice were marked with Picric acid on head (H), tail (T), head and tail (H&T), right leg (RL), left leg (LL), right and left legs (SY), back and blank and were individually monitored.
“Hamsa treatment” as used herein consists of the following active ingredients in the following concentrations: • Cimetidine 60 mg/kg (Farchemia s.r.l. Italy). • Diclofenac 30 mg/kg (Unique Pharma India). • Cyclophosphamide (CTX) 60 mg/kg (Hisun China) • Sulfasalazine (SSZ) (Farchemia s.r.l. Italy)—50 mg/kg on days of cytotoxic treatment, i.e. on days when cyclophosphamide and diclofenac are administered; 150 mg/kg on days of non-cytotoxic treatment, i.e. on days when no cyclophosphamide and disclofenac are administered.
The preparation and administration protocol of the Hamsa treatment is outlined in Table 1:
SB-12, CHAPS and SB-18 (HOPAX Chem. Mfg. Ltd Taiwan) were prepared separately as aqueous solutions, then mixed 1:1 with Vehicle or the cytotoxic or non-cytotoxic stage of the Hamsa treatment and twice the volume was injected i.p. Due to its lower solubility, SB-18 was dissolved by mild warming (˜45° C.) of its aqueous solution in the presence of 2% Solutol HS-15 (BASF-Germany). In groups that received SB-12, CHAPS or SB-18, this agent was injected daily. […]
SB-16-4 was first dissolved in DDW containing 2% Solutol HS-15 with heating to 40° C. to 8 mg/mL concentration. The stock solution was diluted with non-cytotoxic and cytotoxic treatments in 1:1 ratio.
SB-18-4 was first dissolved in DDW containing 4% Solutol HS-15 with heating to 40° C. to 8 mg/mL concentration. The stock solution was diluted with non-cytotoxic and cytotoxic treatments in 1:1 ratio
• 1. 7 mice received vehicle (DDW+2% Solutol—BASF, Germany) • 2. 8 mice received Hamsa treatment • 3. 8 mice received Hamsa treatment in combination with SB-18 (40 mg/kg). • 4. 6 mice received SB-18 in vehicle (40 mg/kg)
• 1. 7 mice received vehicle (DDW+2% Solutol—BASF, Germany) • 2. 8 mice received Hamsa treatment • 3. 7 mice received Hamsa treatment in combination with CHAPS (40 mg/kg). • 4. 7 mice received CHAPS in vehicle (40 mg/kg)
• 1. 7 mice received vehicle (DDW+2% Solutol—BASF, Germany) • 2. 6 mice received Hamsa treatment. • 3. 7 mice received Hamsa treatment with SB-12 (2.5 mg/kg). • 4. 7 mice received SB-12 in vehicle (2.5 mg/kg)
• 1. 7 mice received vehicle (DDW+2% Solutol—BASF, Germany) • 2. 7 mice received Hamsa treatment • 3. 7 mice received Hamsa treatment with SB-12 (40 mg/kg).
• 1. 6 mice received vehicle (DDW+2% Solutol—BASF, Germany) • 2. 6 mice received Hamsa treatment • 3. 7 mice received Hamsa treatment in combination with SB-16-4 (40 mg/kg). • 4. 5 mice received SB-16-4 in vehicle (40 mg/kg)
• 1. 7 mice received vehicle (DDW+2% Solutol—BASF, Germany) • 2. 8 mice received Hamsa treatment • 3. 7 mice received Hamsa treatment in combination with SB-18-4 (40 mg/kg). • 4. 7 mice received SB-18-4 in vehicle (40 mg/kg)
Five (5) or six (6) days after inoculation, when the tumor is already palpable, the treatment was initiated by intraperitoneally (i.p.) injection of the indicated treatment, in a volume of 250 uL, once a day, every day, 6 days a week. […]

[1] = 40 mg/kg i.p. daily + Hamsa treatment (cimetidine, sulfasalazine, diclofenac, cyclophosphamide)
[2] = 40 mg/kg in vehicle, daily, s.c. EMT6/CTX tumor, tumor volume by caliper

## CC(CCC(=O)NCCC[N+](C)(C)CCCS(=O)(=O)[O-])C1CCC2C3C(O)CC4CC(O)CCC4(C)C3CC(O)C12C (centres unmarked) [CHAPS, 3-[3-(Cholamidopropyl)dimethylamonio]-1-propanesulfonate]
[1]
  effect on tumor growth in combination with Hamsa treatment: has a synergistic effect
[2]
  effect on tumor growth, agent alone: has an anti-tumor effect
  inhibition of tumor growth, alone and in combination with Hamsa treatment (summary of experiments 1-4): inhibited tumor growth

## CCCCCCCCCCCC[N+](C)(C)CCCS(=O)(=O)[O-] [SB-12, N-Dodecyl-N,N-Dimethyl-3-Ammonio-1-Propane Sulfonate, reference compound]
2.5 mg/kg i.p. daily + Hamsa treatment (low dose)
  effect on tumor growth in combination with Hamsa treatment: slightly compromises the anti-tumor effect of the Hamsa treatment
2.5 mg/kg in vehicle, daily (low dose)
  effect on tumor growth, agent alone: does not inhibit tumor growth, but rather enhances tumor-growth
[1]
  effect on tumor growth in combination with Hamsa treatment: compromises the anti-tumor effect of Hamsa treatment
  inhibition of tumor growth, alone and in combination with Hamsa treatment (summary of experiments 1-4): did not

## CCCCCCCCCCCCCCCC[N+](C)(C)CCCCS(=O)(=O)[O-] [SB-16-4, N,N-Dimethylhexadecyl-ammonium-1-(4-butylsulfonate)]
[1]
  effect on tumor growth in combination with Hamsa treatment: has a synergistic effect
[2]
  effect on tumor growth, agent alone: has an anti-tumor effect

## CCCCCCCCCCCCCCCCCC[N+](C)(C)CCCS(=O)(=O)[O-] [SB-18, N-Octadecyl-N,N-Dimethyl-3-Ammonio-1-Propane Sulfonate]
[1]
  effect on tumor growth in combination with Hamsa treatment: has a synergistic effect
[2]
  effect on tumor growth, agent alone: has an anti-tumor effect
  inhibition of tumor growth, alone and in combination with Hamsa treatment (summary of experiments 1-4): inhibited tumor growth

## CCCCCCCCCCCCCCCCCC[N+](C)(C)CCCCS(=O)(=O)[O-] [SB-18-4, N,N-Dimethyloctadecyl-ammonium-1-(4-butylsulfonate)]
[1]
  effect on tumor growth in combination with Hamsa treatment: has a synergistic effect
[2]
  effect on tumor growth, agent alone: has an anti-tumor effect

Reference: US20110071100A1, “SULFOBETAINES FOR CANCER, OBESITY, MACULAR DEGENERATION, NEURODEGENERATIVE DISEASES” (TILTAN PHARMA LTD., priority 2008, published 2011)
